Holding throughout (assay type): functional
Assay [1] concerns Candida albicans. The assay is described as follows: Growth inhibition of Candida albicans ATCC 10231 at 100 ug/ml by cup-plate method relative to control. The conditions noted are these: read-out: GI.
The subject of assay [2] is Candida albicans. Briefly: Antifungal activity against Candida albicans ATCC 10231 at 100 ug/ml by cup-plate method. The conditions noted are these: read-out: DIZ.
Assay [3] relates to Staphylococcus aureus. The assay is described as follows: Growth inhibition of Staphylococcus aureus […] at 100 ug/ml by cup-plate method relative to control. The settings on record: read-out: GI.
Assay [4] deals with Escherichia coli. Briefly: Antibacterial activity against Escherichia coli […] at 100 ug/ml by cup-plate method. The settings on record: read-out: DIZ.
The subject of assay [5] is Staphylococcus aureus. The assay is described as follows: Antibacterial activity against Staphylococcus aureus […] at 100 ug/ml by cup-plate method. The settings on record: read-out: DIZ.

With `NNC(=O)c1cc2ccccc2oc1=O`, the inhibition of growth at 100 µg/mL in assay [1] and in assay [3] was 40% each time. In addition, the zone of inhibition at 100 µg/mL was found to be 8 mm in assay [2], 9 mm in assay [4] and 10 mm in assay [5].
On to `COc1ccccc1/C=N/c1nnc(-c2cc3ccccc3oc2=O)o1`, for which the inhibition of growth at 100 µg/mL turned out to be 65% in assay [1] and 56% in assay [3]. The zone of inhibition at 100 µg/mL in assay [2] was 13 mm; in assay [4], 15 mm; in assay [5] it was 14 mm.
For `COc1cccc(/C=N/c2nnc(-c3cc4ccccc4oc3=O)o2)c1`, the inhibition of growth at 100 µg/mL in assay [1] was 70%; in assay [3], 56%. The zone of inhibition at 100 µg/mL came to 14 mm in assay [2], 15 mm in assay [4] and 14 mm in assay [5].
Take `O=c1oc2ccccc2cc1-c1nnc(/N=C/c2ccccc2F)o1`: the inhibition of growth at 100 µg/mL stood at 65% in assay [1] and 48% in assay [3]. Moreover, the zone of inhibition at 100 µg/mL turned out to be 13 mm in assay [2], 10 mm in assay [4] and 12 mm in assay [5].
Regarding `O=c1oc2ccccc2cc1-c1nnc(/N=C/c2ccc([N+](=O)[O-])cc2)o1`, in assay [3], the inhibition of growth at 100 µg/mL came to 64%. Further, the zone of inhibition at 100 µg/mL in assay [4] stood at 12 mm; in assay [5], 17 mm.
Take `O=c1oc2ccccc2cc1-c1nnc(/N=C/c2cccc(F)c2)o1`: the inhibition of growth at 100 µg/mL in assay [1] is 55%; in assay [3] it was 48%. In addition, the zone of inhibition at 100 µg/mL in assay [2] came out at 11 mm; in assay [4], 10 mm; in assay [5] it was 12 mm.
As for `O=c1oc2ccccc2cc1-c1nnc(/N=C/c2ccccc2)o1`, the inhibition of growth at 100 µg/mL in assay [1] worked out at 60%; in assay [3], 80%. Besides, the values for the zone of inhibition at 100 µg/mL in assay [2], in assay [4] and in assay [5] were 12 mm, 20 mm and 20 mm, respectively.
With `O=c1oc2ccccc2cc1-c1nnc(/N=C/c2cccc(Cl)c2)o1`, the inhibition of growth at 100 µg/mL in assay [1] turned out to be 70%. The zone of inhibition at 100 µg/mL in assay [2] was 14 mm; in assay [4] it was 17 mm.
The corresponding values for `O=c1oc2ccccc2cc1-c1nnc(/N=C/c2ccc(Cl)cc2)o1` are 75%, 15 mm and 17 mm.
In the same order, the values of `O=c1oc2ccccc2cc1-c1nnc(/N=C/c2ccccc2Cl)o1` are 65%, 13 mm and 17 mm.
Turning to `O=c1oc2ccccc2cc1-c1nnc(/N=C/c2ccc(F)cc2)o1`, the inhibition of growth at 100 µg/mL was 50% in assay [1] and 48% in assay [3]. The zone of inhibition at 100 µg/mL stood at 10 mm in assay [2], 15 mm in assay [4] and 12 mm in assay [5].
The corresponding values for `COc1ccc(/C=N/c2nnc(-c3cc4ccccc4oc3=O)o2)cc1` are 60%, 56%, 12 mm, 10 mm and 14 mm.
The corresponding values for `CN(C)c1ccc(/C=N/c2nnc(-c3cc4ccccc4oc3=O)o2)cc1` are 80%, 48%, 16 mm, 12 mm and 12 mm.
As to `O=c1oc2ccccc2cc1-c1nnc(/N=C/c2ccccc2[N+](=O)[O-])o1`, the inhibition of growth at 100 µg/mL in assay [3] was determined as 64%. For the same compound, the zone of inhibition at 100 µg/mL was found to be 14 mm in assay [4] and 17 mm in assay [5].
Turning to `O=c1oc2ccccc2cc1-c1nnc(/N=C/c2cccc(O)c2)o1`, the inhibition of growth at 100 µg/mL was 55% in assay [1] and 40% in assay [3]. Besides, the zone of inhibition at 100 µg/mL in assay [2] is 11 mm; in assay [4] it was 15 mm; in assay [5], 10 mm.
The corresponding values for `O=c1oc2ccccc2cc1-c1nnc(/N=C/c2ccccc2O)o1` are 50%, 40%, 10 mm, 12 mm and 10 mm.
As for `COc1ccc(/C=N/c2nnc(-c3cc4ccccc4oc3=O)o2)cc1OC`, the inhibition of growth at 100 µg/mL in assay [1] amounted to 50%; in assay [3], 48%. The zone of inhibition at 100 µg/mL in assay [2] is 10 mm; in assay [4], 10 mm; in assay [5], 12 mm.
For `O=c1oc2ccccc2cc1-c1nnc(/N=C/c2ccc(O)cc2)o1`, the inhibition of growth at 100 µg/mL in assay [1] worked out at 45%; in assay [3] it was 40%. The zone of inhibition at 100 µg/mL in assay [2] turned out to be 9 mm; in assay [4], 10 mm; in assay [5] it was 10 mm.
For the compound `O=c1oc2ccccc2cc1-c1nnc(/N=C/c2cccc([N+](=O)[O-])c2)o1`, the inhibition of growth at 100 µg/mL in assay [3] was determined as 64%. Moreover, the zone of inhibition at 100 µg/mL in assay [4] is 12 mm; in assay [5], 17 mm.
Consider `O=C(O)c1cn(C2CC2)c2cc(N3CCNCC3)c(F)cc2c1=O` [CIPROFLOXACIN], for which the inhibition of growth at 100 µg/mL in assay [3] stood at 100%. Further, the zone of inhibition at 100 µg/mL in assay [5] is 25 mm.
Take `CC(=O)N1CCN(c2ccc(OCC3COC(Cn4ccnc4)(c4ccc(Cl)cc4Cl)O3)cc2)CC1` (configuration not stated) [KETOCONAZOLE]: in assay [1], the inhibition of growth at 100 µg/mL was determined as 100%. Further, in assay [2], the zone of inhibition at 100 µg/mL was 20 mm.

The values above are taken from ChEMBL document CHEMBL3044859, “Antimicrobial activity of Schiff bases of coumarin-incorporated 1,3,4-oxadiazole derivatives: an in vitro evaluation” (2013).
